Source: patent US5094783A, “Retinoid compounds” (UAB Research Foundation, priority 1990, dated 1992)

Tested on: ornithine decarboxylase (ODC) induced by TPA in mouse epidermis
Assay: In vivo ODC assay: inhibition of TPA-induced ornithine decarboxylase activity in mouse epidermis
Settings: TPA-induced ODC activity in epidermis of CD-1 mice, single topical application of retinoid 30 to 60 min before TPA, skins collected 5 h after TPA; values normalized to TPA control of 10; X=CO2H
Description: An in vivo ODC assay was conducted using four configurational isomers of retinoid 7 with X=CO2 H to study their bioactivities with respect to prevention of tumors. The ODC assay measured the inhibition by retinoids of the induction of ornithine decarboxylase in mouse epidermis by phorbol ester (TPA), an indicator of retinoid potency as a chemopreventive agent.
A single application of TPA was made to the shaved backs of CD-1 mice 30 to 60 minutes after a single application of the test retinoid. Five hours after the application of TPA, the exposed skins from the back of the three animals in each group were collected, and the epidermal extracts prepared from each animal were pooled and assayed. In order to improve the counting efficiency of radio-labeled product formed in the assay, the specific activity of ^14 C-ornithine was increased five-fold; the assay was terminated by the addition of citric acid at 45 minutes to ensure linear kinetics.

Row | Structure (SMILES) | ODC Assay (nmol CO2/30 min./mg protein)
1 | CC1=C(/C=C/C(C)=C/C=C/C(C)=C/C(=O)O)C(C)(C)CCC1 [all-E retinoic acid, reference compound] | 0.5 nmol CO2/30 min./mg protein
2 | CC1=C(C(C)C)/C(=C/C(C)=C\C=C\C(C)=C\C(=O)O)CCC1 [(9Z)-7] | > 100 nmol CO2/30 min./mg protein
3 | CC1=C(C(C)C)/C(=C/C(C)=C\C=C\C(C)=C/C(=O)O)CCC1 [(9Z,13Z)-7] | > 100 nmol CO2/30 min./mg protein
4 | CC1=C(C(C)C)/C(=C/C(C)=C/C=C/C(C)=C/C(=O)O)CCC1 [(all E)-7] | 0.5 nmol CO2/30 min./mg protein
5 | CC1=C(C(C)C)/C(=C/C(C)=C/C=C/C(C)=C\C(=O)O)CCC1 [(13Z)-7] | 1.0 nmol CO2/30 min./mg protein

Tested on: chick embryo skin CRABP
Assay: CRABP competition by sucrose density gradient sedimentation, 100-fold excess of retinoid
Format: binding
Settings: 100-fold molar excess of test compound, 300 pmol [3H] retinoic acid, FIG. 1
Description: (§1) Aliquots (2 mg protein) of chick skin extracts were incubated with 300 pmoles of [^3 H] retinoic acid in the presence or absence of 100-fold molar excesses of the test compounds. The 2S CRABP peaks were determined from the radioactivity profiles obtained after sedimentation through 5 to 20% sucrose density gradients at 180,000×g for 18 hours (Sani et al., supra). […] Free radioactive retinoid was removed by absorption on dextran-coated charcoal. The I50 values of the test compounds were derived from the semilog plots of their molar concentrations versus the specifically bound [^3 H] retinoic acid to CRABP at the different concentrations of the test retinoids.

Row | Structure (SMILES) | inhibition of [3H] retinoic acid-binding to CRABP (relative binding affinity as compared to retinoic acid) [%]
6 | CC1=C(/C=C/C(C)=C/C=C/C(C)=C/C(=O)O)C(C)(C)CCC1 [all-E retinoic acid, reference compound] | 100
7 | CC1=C(C(C)C)/C(=C/C(C)=C\C=C\C(C)=C\C(=O)O)CCC1 [(9Z)-7] | 0
8 | CC1=C(C(C)C)/C(=C/C(C)=C\C=C\C(C)=C/C(=O)O)CCC1 [(9Z,13Z)-7] | 0
9 | CC1=C(C(C)C)/C(=C/C(C)=C/C=C/C(C)=C/C(=O)O)CCC1 [(all E)-7] | 100
10 | CC1=C(C(C)C)/C(=C/C(C)=C/C=C/C(C)=C\C(=O)O)CCC1 [(13Z)-7] | 70

Molecular target: cellular retinoic acid binding protein (CRABP) from chick embryo skin
Assay: CRABP binding assay, I50 (dextran-coated charcoal)
Settings: 50% inhibition of binding of 100 pmoles [3H] retinoic acid to CRABP, chick embryo skin extract (1 mg protein); X=CO2H
Description: A standard in vitro cellular retinoic acid binding protein (CRABP) assay was also conducted on the retinoids. The CRABP binding study measured the ability of retinoids to compete for the retinoic acid binding site on CRABP, also a good indicator of retinoid potency as a chemopreventive agent.
as §1

Row | Structure (SMILES) | IC50 [µM]
11 | CC1=C(/C=C/C(C)=C/C=C/C(C)=C/C(=O)O)C(C)(C)CCC1 [all-E retinoic acid, reference compound] | 0.9
12 | CC1=C(C(C)C)/C(=C/C(C)=C\C=C\C(C)=C\C(=O)O)CCC1 [(9Z)-7] | 2.8
13 | CC1=C(C(C)C)/C(=C/C(C)=C\C=C\C(C)=C/C(=O)O)CCC1 [(9Z,13Z)-7] | 4.9
14 | CC1=C(C(C)C)/C(=C/C(C)=C/C=C/C(C)=C/C(=O)O)CCC1 [(all E)-7] | 0.4
15 | CC1=C(C(C)C)/C(=C/C(C)=C/C=C/C(C)=C\C(=O)O)CCC1 [(13Z)-7] | 0.5

Tested on: mouse skin papilloma
Assay: Mouse papilloma assay (tumor formation after DMBA initiation)
Format: in vivo
Settings: initiation with DMBA, X=CO2H
Description: This assay measured the inhibition of tumor formation following initiation with dimethylbenz(a)anthracene (DMBA).

Row | Structure (SMILES) | tumor production, % of controls
16 | CC1=C(/C=C/C(C)=C/C=C/C(C)=C/C(=O)O)C(C)(C)CCC1 [all-E retinoic acid, reference compound] | 11 % of controls
17 | CC1=C(C(C)C)/C(=C/C(C)=C/C=C/C(C)=C/C(=O)O)CCC1 [(all E)-7] | 20 % of controls
